In ChEMBL document CHEMBL6078665, “Structural optimization of naturally derived Ar-turmerone, as novel neuroinflammation suppressors effective in an Alzheimer mouse model” (Bioorg Med Chem, 2025):
The source made the active and inactive calls. The calls are words filed in the database; no cut-off is given here.

Columns and labels:
BV-2 [1] = assay: Anti-inflammatory activity against LPS-induced mouse BV-2 cells assessed as inhibition rate of LPS-induced […] production at 80 uM pretreated for 1 hr followed by challenged with LPS and measured after 24 hrs incubation by Griess assay; format: functional; conditions: time 25 hrs
BV-2 [2] = assay: Anti-inflammatory activity against LPS-induced mouse BV-2 cells assessed as inhibition rate of LPS-induced TNFalpha production pretreated for 1 hr followed by challenged with LPS and measured after 24 hrs incubation by ELISA assay; format: functional, cell-based
Mus musculus [3] = assay: Anti-neuroinflammatory activity against LPS-induced C57BL/6 mouse model assessed as reversal of LPS-induced IL-1 beta increase in hippocampal homogenate at 100 mg/kg, po measured up to 5 days by ELISA kit; format: functional, organism-based; conditions: time <= 5.0 day
BV-2 [4] = assay: Anti-inflammatory activity against LPS-induced mouse BV-2 cells assessed as inhibition rate of LPS-induced NO production pretreated for 1 hr followed by challenged with LPS and measured after 24 hrs incubation by Griess assay; format: functional, cell-based
Mus musculus [5] = assay: Anti-neuroinflammatory activity against LPS-induced spatial learning in C57BL/6 mouse model assessed as swimming pathway at 100 mg/kg, po measured up to 5 days by Morris water maze test; format: functional, organism-based; conditions: time <= 5.0 day
Mus musculus [6] = assay: Anti-neuroinflammatory activity against LPS-induced C57BL/6 mouse model assessed as reversal of LPS-induced TNFalpha increase in hippocampal homogenate at 100 mg/kg, po measured up to 5 days by ELISA kit; format: functional, organism-based; conditions: time <= 5.0 day
BV-2 [7] = assay: Anti-inflammatory activity against LPS-induced mouse BV-2 cells assessed as inhibition rate of LPS-induced IL-1beta production pretreated for 1 hr followed by challenged with LPS and measured after 24 hrs incubation by ELISA assay; format: functional, cell-based
Mus musculus [8] = assay: Anti-neuroinflammatory activity against LPS-induced spatial learning loss in C57BL/6 mouse model assessed as shortening of escape latency at 100 mg/kg, po measured up to 5 days by Morris water maze test; format: functional, organism-based; conditions: time <= 5.0 day
[9] = (§1) Cytotoxicity against LPS-induced mouse BV-2 cells assessed as cell survival at 80 uM measured after 24 hrs incubation by MTT assay; format: toxicity, cell-based; conditions: LPS-induced BV-2 cells, read-out: Survival
Mus musculus [10] = assay: Anti-neuroinflammatory activity against LPS-induced C57BL/6 mouse model assessed as reversal of LPS-induced IL-1 beta increase in cortex at 100 mg/kg, po measured up to 5 days by ELISA kit; format: functional, organism-based; conditions: time <= 5.0 day
Mus musculus [11] = assay: Anti-neuroinflammatory activity against LPS-induced C57BL/6 mouse model assessed as reversal of LPS-induced TNFalpha increase in cortex at 100 mg/kg, po measured up to 5 days by ELISA kit; format: functional, organism-based; conditions: time <= 5.0 day
BV-2 [12] = assay: as §1; format: toxicity, cell-based; conditions: bv-2, 24 h, 80 µM
Mus musculus [13] = assay: Anti-neuroinflammatory activity against LPS-induced neuronal damage C57BL/6 mouse model assessed as restoration of number of normal neuronal cells in cortex at 100 mg/kg, po measured up to 5 days by Nissl staining based assay; format: functional, organism-based; conditions: time <= 5.0 day
Mus musculus [14] = assay: Anti-neuroinflammatory activity against LPS-induced neuronal damage C57BL/6 mouse model assessed as restoration of number of normal neuronal cells in hippocampus at 100 mg/kg, po measured up to 5 days by Nissl staining based assay; format: functional, organism-based; conditions: time <= 5.0 day
Mus musculus [15] = assay: Anti-neuroinflammatory activity against LPS-induced reference memory loss in C57BL/6 mouse model assessed as increase in time spent in target quadrant at 100 mg/kg, po measured up to 5 days by reference memory (probe trial) test; format: functional, organism-based; conditions: time <= 5.0 day
Mus musculus [16] = assay: Anti-neuroinflammatory activity against LPS-induced reference memory loss in C57BL/6 mouse model assessed as increase in number of times cross the target quadrant at 100 mg/kg, po measured up to 5 days by reference memory (probe trial) test; format: functional, organism-based; conditions: time <= 5.0 day

SMILES | inhibition at 80 µM (BV-2 [1]) [%] | IC50 (BV-2 [2]) [µM] | IC50 (BV-2 [4]) [µM] | IC50 (BV-2 [7]) [µM] | viability at 24 h, 80 µM [9] [%] | other results
CC(C)=CC(=O)OC(C)c1ccccc1 (centres undefined) | 24.9 |  |  |  |  | 
CC(C)=CC(=O)OC(C)c1ccc(C)cc1 (centres undefined) | 64.5 | 28.5 | 42.5 | 34 | > 80 | Activity (Mus musculus [3]): Active; Activity (Mus musculus [5]): Active; Activity (Mus musculus [6]): Active; Activity (Mus musculus [8]): Active
CC(C)=CC(=O)CC(C)c1ccc(C)cc1 (racemic) | 81.5 | 42.5 | 30.2 | 19.7 | > 80 | 
CC(C)=CC(=O)NC(C)c1ccc(Cl)cc1 (centres undefined) | 38 |  |  |  | > 80 | 
CCCC(OC(=O)C=C(C)C)c1ccc(-c2ccccc2)cc1 (centres undefined) | 14.9 |  |  |  | > 80 | 
CC(C)=CC(=O)CC(c1ccc(C)cc1)c1ccc(F)cc1 (centres undefined) | 8.15 |  |  |  | > 80 | 
CC(C)=CC(=O)NC(C)c1ccc(C)cc1 (centres undefined) | 79.8 | 27.5 | 17.3 | 14 | > 80 | Activity (Mus musculus [10]): Active; Activity (Mus musculus [3]): Active; Activity (Mus musculus [11]): Active; Activity (Mus musculus [5]): Active; Activity (Mus musculus [6]): Active; Activity (Mus musculus [8]): Active
CC(C)=CC(=O)NC(C)c1ccc(-c2ccccc2)cc1 (centres undefined) | 16.9 |  |  |  |  | Activity (BV-2 [12]): Non-toxic
CCCc1ccc(CNC(=O)C=C(C)C)cc1 | 59.8 | 53.6 | 49.4 | 43.9 | > 80 | 
CC(C)=CC(=O)CC(c1ccc(C)cc1)C(C)C (centres undefined) | 71 | 46.5 | 30.9 | 42.4 | > 80 | 
CC(C)=CC(=O)CC(C)c1ccc(C(F)(F)F)cc1 (centres undefined) | 26.8 |  |  |  | > 80 | 
CC(C)=CC(=O)OC(C)c1ccc(C(F)(F)F)cc1 (centres undefined) | 28.2 |  |  |  | > 80 | 
CC(C)=CC(=O)NC(C)c1ccc2ccccc2c1 (centres undefined) | 60.1 | 24.5 | 44.2 | 32.5 | > 80 | Activity (Mus musculus [13]): Active; Compound Exhibited Superior Effect Compared To Ar-Turmerone And Ttp488; Activity (Mus musculus [10]): Active; Activity (Mus musculus [14]): Active; Compound Exhibited Superior Effect Compared To Ar-Turmerone And Ttp488; Activity (Mus musculus [3]): Active; Activity (Mus musculus [15]): Active; Activity (Mus musculus [11]): Active; Activity (Mus musculus [5]): Active; Activity (Mus musculus [6]): Active; Activity (Mus musculus [8]): Active; Activity (Mus musculus [16]): Active
CC(C)=CC(=O)CC(c1ccc(F)cc1)c1ccc(-c2ccccc2)cc1 (centres undefined) | 29.3 |  |  |  |  | Activity (BV-2 [12]): Non-toxic
CC(C)=CC(=O)C[C@@H](C)c1ccc(C)cc1 |  | 40.9 | 29.1 | 23.1 |  | 
CC(C)=CC(=O)OC(C)c1ccc2ccccc2c1 (centres undefined) | 7.97 |  |  |  | > 80 | 
CC(C)=CC(=O)NC(c1ccccc1)c1ccc(C)cc1 (centres undefined) | 71 | 50.3 | 30.4 | 54.1 | > 80 | Activity (Mus musculus [3]): Active; Compound Exhibited Superior Effect Compared To Ar-Turmerone; Activity (Mus musculus [5]): Active; Activity (Mus musculus [6]): Active; Compound Exhibited Superior Effect Compared To Ar-Turmerone; Activity (Mus musculus [8]): Active
CC(C)=CC(=O)NC(C)c1ccccc1 (centres undefined) | 22.3 |  |  |  |  | 
CC(C)=CC(=O)CC(c1ccc(-c2ccccc2)cc1)C(C)C (centres undefined) | 69.7 | 51.4 | 26.6 | 56.2 |  | Activity (BV-2 [12]): Non-toxic
CC(C)=CC(=O)C[C@H](C)c1ccc(C)cc1 |  | 39.9 | 25.4 | 18.5 | > 80 | Activity (Mus musculus [13]): Active; Activity (Mus musculus [14]): Active; Activity (Mus musculus [3]): Active; Activity (Mus musculus [6]): Active
CC(C)=CC(=O)NC(C)c1ccc(C(F)(F)F)cc1 (centres undefined) | 28 |  |  |  | > 80 | 
CC(C)=CC(=O)OC(C)c1ccc(Cl)cc1 (centres undefined) | 15.8 |  |  |  | > 80 | 
CCCCc1nc(-c2ccc(OCCCN(CC)CC)cc2)cn1-c1ccc(Oc2ccc(Cl)cc2)cc1 |  |  |  |  |  | Activity (Mus musculus [3]): Active; Activity (Mus musculus [15]): Active; Activity (Mus musculus [6]): Active; Activity (Mus musculus [16]): Active
CC(C)=CC(=O)OC(C)c1ccc(-c2ccccc2)cc1 (centres undefined) | 44.5 |  |  |  | > 80 | 
CC(C)=CC(=O)CC(C)c1ccccc1Cl (centres undefined) | 47.7 |  |  |  | > 80 | 
CC(C)=CC(=O)CC(c1ccc(F)cc1)c1ccc(C(F)(F)F)cc1 (centres undefined) | 19.1 |  |  |  | > 80 | 
CC(C)=CC(=O)CC(C)c1ccc(-c2ccccc2)cc1 (centres undefined) | 18.9 |  |  |  |  | Activity (BV-2 [12]): Non-toxic
